Assay results published in ChEMBL document CHEMBL5053547, “Targeting of the FOXM1 Oncoprotein by E3 Ligase-Assisted Degradation” (J Med Chem, 2021).
Activity calls are given as the source filed them. No cut-off for these calls is given here.

What was measured:
MDA-MB-231 [1] = assay: Antiproliferative activity against human MDA-MB-231 cells assessed as growth inhibition by MTT assay; type: functional
MDA-MB-231 [2] = assay: Reduction in FOXM1 expression in mouse xenografted with human MDA-MB-231 cells at 10 mg/kg/day administered through tail vain for 12 consecutive days by Western blot analysis; type: functional, organism-based; conditions: route iv
MDA-MB-231 [3] = assay: Reduction in beta-catenin nuclear accumulation in human MDA-MB-231 cells at 20 uM incubated for 16 hrs by Western blot analysis; type: functional, cell-based
MDA-MB-231 [4] = assay: Induction of cell cycle arrest in human MDA-MB-231 cells assessed as accumulation at G2/M phase at 20 uM incubated for 16 hrs by flow cytometry assay (reference value: 12.30%); type: functional
Forkhead box protein M1 = molecular target: T1, Forkhead box protein M1 (Homo sapiens, UniProt Q08050); assay: Inhibition of recombinant FOXM1-DBD (unknown origin) binding to DNA measured after 30 mins by biochemical EMSA assay
T1 sequence (Q08050 whole entry): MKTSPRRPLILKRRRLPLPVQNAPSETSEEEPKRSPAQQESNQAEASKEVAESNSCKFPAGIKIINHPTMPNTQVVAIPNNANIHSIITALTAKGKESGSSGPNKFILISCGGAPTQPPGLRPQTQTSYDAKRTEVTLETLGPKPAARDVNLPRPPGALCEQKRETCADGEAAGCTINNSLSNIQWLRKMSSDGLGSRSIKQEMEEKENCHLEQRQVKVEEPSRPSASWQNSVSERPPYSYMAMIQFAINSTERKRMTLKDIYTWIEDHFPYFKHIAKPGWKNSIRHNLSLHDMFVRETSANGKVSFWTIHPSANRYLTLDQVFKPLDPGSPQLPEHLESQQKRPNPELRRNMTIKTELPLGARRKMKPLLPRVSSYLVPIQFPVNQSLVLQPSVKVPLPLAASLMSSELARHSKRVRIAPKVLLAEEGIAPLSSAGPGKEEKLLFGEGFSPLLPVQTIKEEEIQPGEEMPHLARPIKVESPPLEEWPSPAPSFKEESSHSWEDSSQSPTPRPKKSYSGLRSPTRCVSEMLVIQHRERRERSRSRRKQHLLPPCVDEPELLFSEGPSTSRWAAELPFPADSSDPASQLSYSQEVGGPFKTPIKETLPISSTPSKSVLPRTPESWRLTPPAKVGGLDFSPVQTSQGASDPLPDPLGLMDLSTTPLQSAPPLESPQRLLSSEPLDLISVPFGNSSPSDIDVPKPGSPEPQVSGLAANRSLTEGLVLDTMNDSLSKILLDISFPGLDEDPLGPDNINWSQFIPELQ

MDA-MB-231 [5] = assay: Antitumor activity against human MDA-MB-231 cells xenografted in mouse assessed as […] by measuring Ki67 labelling at 10 mg/kg/day administered through tail vain for 12 consecutive days by immunohistochemical analysis; type: functional, organism-based; conditions: route iv
MDA-MB-231 [6] = assay: Induction of cell cycle arrest in human MDA-MB-231 cells assessed as accumulation at S phase at 20 uM incubated for 16 hrs by flow cytometry assay (reference value: 22.19%); type: functional
MDA-MB-231 [7] = assay: Induction of cell cycle arrest in human MDA-MB-231 cells assessed as accumulation at G0/G1 phase at 20 uM incubated for 16 hrs by flow cytometry assay (reference value: 65.49%); type: functional
MDA-MB-231 [8] = assay: In vivo antitumor activity against human MDA-MB-231 cells xenografted in mouse assessed as tumor growth inhibition at 10 mg/kg/day administered through tail vain for 12 consecutive days; type: functional; conditions: route iv, read-out: TGI
MDA-MB-231 [9] = assay: Antitumor activity against human MDA-MB-231 cells xenografted in mouse assessed as tumor shrinkage at 10 mg/kg/day administered through tail vain for 12 consecutive days by H and E staining based histological analysis; type: functional, organism-based; conditions: route iv
MDA-MB-231 [10] = assay: Downregulation of Cyclin B expression in human MDA-MB-231 cells at 20 uM incubated for 16 hrs by Western blot analysis; type: functional, cell-based
MDA-MB-231 [11] = assay: Downregulation of CDC25B expression in human MDA-MB-231 cells at 20 uM incubated for 16 hrs by Western blot analysis; type: functional, cell-based
MDA-MB-231 [12] = assay: Antineoplastic effect in human MDA-MB-231 cells xenografted in mouse assessed as reduction in tumor volume at 10 mg/kg/day administered through tail vain for 12 consecutive days; type: functional, organism-based; conditions: route iv
MDA-MB-231 [13] = assay: Anti-invasive activity against human MDA-MB-231 cells assessed as reduction invasion incubated by transwell assay; type: functional, cell-based; conditions: dose 10-20 µM
MCF7 = assay: Antiproliferative activity against human MCF7 cells assessed as cell viability measured at 10 uM; type: functional, cell-based
MDA-MB-231 [14] = assay: Anti-invasive activity against human MDA-MB-231 cells assessed as decrease in MMP2 gene expression incubated for 16 hrs by qRT-PCR analysis; type: functional, cell-based; conditions: dose 10-20 µM
MCF-10A = assay: Cytotoxicity against human MCF-10A cells assessed as cell viability measured upto 30 uM; type: cell-based
[15] = Stability in mouse plasma assessed as half life by LC/MS analysis; type: ADME, cell-free
MDA-MB-231 [16] = assay: Anti-invasive activity against human MDA-MB-231 cells assessed as decrease in Vimentin gene expression incubated for 16 hrs by qRT-PCR analysis; type: functional, cell-based; conditions: dose 10-20 µM
MDA-MB-231 [17] = assay: Anti-invasive activity against human MDA-MB-231 cells assessed as decrease in Slug gene expression incubated for 16 hrs by qRT-PCR analysis; type: functional, cell-based; conditions: dose 10-20 µM
[18] = Stability in rat plasma assessed as half life by LC/MS analysis; type: ADME, cell-free
[19] = Stability in human plasma assessed as half life by LC/MS analysis; type: ADME, cell-free
MDA-MB-231 [20] = assay: Anti-invasive activity against human MDA-MB-231 cells assessed as decrease in Snail gene expression incubated for 16 hrs by qRT-PCR analysis; type: functional, cell-based; conditions: dose 10-20 µM
Mus musculus = assay: Toxicity in mouse xenografted with human MDA-MB-231 cells assessed as change in body weight at 10 mg/kg/day administered through tail vain for 12 consecutive days; type: organism-based; conditions: in vivo, iv
MDA-MB-231 [21] = assay: Anti-invasive activity against human MDA-MB-231 cells assessed as reduction migration incubated by transwell assay; type: functional, cell-based; conditions: dose 10-20 µM
MDA-MB-231 [22] = assay: Anti-invasive activity against human MDA-MB-231 cells assessed as increase in E-cadherin mRNA expression incubated for 16 hrs by qRT-PCR analysis; type: functional, cell-based; conditions: dose 10-20 µM

Q: With `Nc1c(C(=O)Nc2ccc(F)cc2)sc2nc(-c3ccc(OCC(=O)NCCCNC(=O)COc4cccc5c4C(=O)N(C4CCC(=O)NC4=O)C5=O)cc3)cc(C(F)(F)F)c12` (centres undefined) as the compound, how does the GI50 (MDA-MB-231 [1]) read?
A: 17.4 µM

Q: Which GI50 (MDA-MB-231 [1]) does the source give for `Nc1c(C(=O)Nc2ccc(F)cc2)sc2nc(-c3ccc(OCC(=O)NCCCCCCCCNC(=O)COc4cccc5c4C(=O)N(C4CCC(=O)NC4=O)C5=O)cc3)cc(C(F)(F)F)c12` (centres undefined) here?
A: 38.6 µM

Q: For `Nc1c(C(=O)Nc2ccc(F)cc2)sc2nc(-c3ccc(OCC(=O)NCCOCCOCCNC(=O)COc4cccc5c4C(=O)N(C4CCC(=O)NC4=O)C5=O)cc3)cc(C(F)(F)F)c12` (centres undefined), which GI50 (MDA-MB-231 [1]) is on record?
A: 19.5 µM

Q: Which GI50 (MDA-MB-231 [1]) does the source give for `COc1ccc(-c2cc(C(F)(F)F)c3c(N)c(C(=O)Nc4ccc(F)cc4)sc3n2)cc1` here?
A: 27.3 µM

Q: For `Nc1c(C(=O)Nc2ccc(F)cc2)sc2nc(-c3cccs3)cc(C(F)(F)F)c12`, which Activity (MDA-MB-231 [2]) is on record?
A: Active

Q: What about the Activity (MDA-MB-231 [3]) of the same compound?
A: inactive

Q: What about the Activity (MDA-MB-231 [4]) of the same compound?
A: 16.32%

Q: And the IC50 (Forkhead box protein M1)?
A: 28.4 µM

Q: What about the Activity (MDA-MB-231 [5]) of the same compound?
A: Active

Q: What about the Activity (MDA-MB-231 [6]) of the same compound?
A: 16.17%

Q: And the Activity (MDA-MB-231 [7])?
A: 57.52%

Q: What about the inhibition in vivo at 10 mg/kg/day (MDA-MB-231 [8]) of the same compound?
A: 47.8%

Q: What about the GI50 (MDA-MB-231 [1]) of the same compound?
A: 25.6 µM

Q: And the Activity (MDA-MB-231 [9])?
A: Active

Q: For `Nc1c(C(=O)Nc2ccc(F)cc2)sc2nc(-c3ccc(OCC(=O)NCCOCCOCCNc4cccc5c4C(=O)N(C4CCC(=O)NC4=O)C5=O)cc3)cc(C(F)(F)F)c12` (centres undefined), which GI50 (MDA-MB-231 [1]) is on record?
A: > 50 µM

Q: What does the source list for `CN1C(=O)CCC(N2C(=O)c3cccc(OCC(=O)NCCCOCCOCCOCCCNC(=O)COc4ccc(-c5cc(C(F)(F)F)c6c(N)c(C(=O)Nc7ccc(F)cc7)sc6n5)cc4)c3C2=O)C1=O` (centres undefined)?
A: Activity (MDA-MB-231 [10]): inactive; Activity (MDA-MB-231 [3]): inactive; Activity (MDA-MB-231 [4]): 18.2%; Activity (MDA-MB-231 [6]): 24.35%; Activity (MDA-MB-231 [7]): 57.44%; Activity (MDA-MB-231 [11]): inactive

Q: For `Nc1c(C(=O)Nc2ccc(F)cc2)sc2nc(-c3ccc(OCC(=O)NCCCNc4cccc5c4C(=O)N(C4CCC(=O)NC4=O)C5=O)cc3)cc(C(F)(F)F)c12` (centres undefined), which GI50 (MDA-MB-231 [1]) is on record?
A: 45.4 µM

Q: Which GI50 (MDA-MB-231 [1]) does the source give for `Nc1c(C(=O)Nc2ccc(F)cc2)sc2nc(-c3ccc(OCC(=O)NCCCOCCOCCOCCCNc4cccc5c4C(=O)N(C4CCC(=O)NC4=O)C5=O)cc3)cc(C(F)(F)F)c12` (centres undefined) here?
A: > 50 µM

Q: Which GI50 (MDA-MB-231 [1]) does the source give for `Nc1c(C(=O)Nc2ccc(F)cc2)sc2nc(-c3ccc(OCC(=O)NCCCCCCCCNc4cccc5c4C(=O)N(C4CCC(=O)NC4=O)C5=O)cc3)cc(C(F)(F)F)c12` (centres undefined) here?
A: > 50 µM

Q: For `Nc1c(C(=O)Nc2ccc(F)cc2)sc2nc(-c3ccc(OCC(=O)NCCCOCCOCCOCCCNC(=O)COc4cccc5c4C(=O)N(C4CCC(=O)NC4=O)C5=O)cc3)cc(C(F)(F)F)c12` (centres undefined), which Activity (MDA-MB-231 [12]) is on record?
A: Active

Q: What about the Activity (MDA-MB-231 [2]) of the same compound?
A: Active

Q: What about the Activity (MDA-MB-231 [13]) of the same compound?
A: Dose-dependent effect

Q: And the Activity (MDA-MB-231 [10])?
A: Active

Q: And the Activity (MCF7)?
A: Active

Q: And the Activity (MDA-MB-231 [3])?
A: Active

Q: What about the Activity (MDA-MB-231 [14]) of the same compound?
A: Dose-dependent effect

Q: And the Activity (MDA-MB-231 [4])?
A: 20%

Q: What about the Activity (MCF-10A) of the same compound?
A: Non-Toxic

Q: What about the half-life [15] of the same compound?
A: > 2 h

Q: What about the Activity (MDA-MB-231 [5]) of the same compound?
A: Active

Q: What about the Activity (MDA-MB-231 [6]) of the same compound?
A: 21.75%

Q: And the Activity (MDA-MB-231 [16])?
A: Dose-dependent effect

Q: And the Activity (MDA-MB-231 [17])?
A: Dose-dependent effect

Q: And the half-life [18]?
A: 0.588 h

Q: What about the half-life [19] of the same compound?
A: 1.74 h

Q: What about the Activity (MDA-MB-231 [7]) of the same compound?
A: 57.92%

Q: And the Activity (MDA-MB-231 [20])?
A: Dose-dependent effect

Q: What about the inhibition in vivo at 10 mg/kg/day (MDA-MB-231 [8]) of the same compound?
A: 78.2%

Q: What about the Activity (Mus musculus) of the same compound?
A: Non-Toxic

Q: And the Activity (MDA-MB-231 [21])?
A: Dose-dependent effect

Q: And the Activity (MDA-MB-231 [22])?
A: Dose-dependent effect

Q: What about the Activity (MDA-MB-231 [11]) of the same compound?
A: Active

Q: And the GI50 (MDA-MB-231 [1])?
A: 16.2 µM

Q: What about the Activity (MDA-MB-231 [9]) of the same compound?
A: Active
